Reference: ChEMBL document CHEMBL3507680, “University of Dundee, Gates Library screen for HepG2 cell viability”

Experiment: Human HepG2 cell viability assay in 384 well format
Assay type: toxicity, cell-based
Set-up: dose 125 nL, time 70.5 hour; cytotoxicity at 70.5 h: concentration not given beside the values
Settings: HepG2 cells, read-out: Inhibition

SMILES | cytotoxicity at 70.5 h
CCC1(CC)Cc2ccccc2-c2nc(NCCCO)[nH]c(=O)c21 | -14.8%
c1ccc(CN2CCC3(CC2)Nc2ccccc2CO3)cc1 | -6.59%
CCC1(C)Cc2ccccc2-c2nc(NCCCO)nc(O)c21 (stereo unspecified) | -4.42%
CC(C)NC(=O)C1CN(Cc2cccs2)Cc2ccnn2C1 (stereo unspecified) | 3.45%
Cc1ncsc1C(=O)N1CC[C@@H]2[C@@H](CC1)OCCN2c1cccnc1 | -8.57%
CC(=O)N1CCS(=O)(=O)[C@@H]2CCN(S(=O)(=O)CC(C)C)CC[C@@H]21 | -6.44%
COCc1nn(C)c2c1CN(C(=O)c1ccno1)CC2 | -9.37%
Cc1nocc1C(=O)N1CCCC2(CCN(c3ccsc3)C2=O)C1 (stereo unspecified) | -6.39%
Cc1oncc1C(=O)N1CCCc2c(C#N)nn(C)c2C1 | -7.62%
Cc1csc(CN2CC[C@H]3C[C@H](c4ccncn4)O[C@@H]3C2)n1 | -2.15%
CNC(=O)C1Cn2ccnc2C2(CCN(c3ccc(C)nn3)CC2)O1 (stereo unspecified) | -0.593%
Cc1nc(CN2CCO[C@H]3CN(C(=O)c4cscn4)C[C@H]32)cs1 | -5.86%
COCC1CC2(CCN(C(=O)c3ccc(F)cc3C)CC2)CO1 (stereo unspecified) | -2.86%
Cc1nc(CN2CC[C@H]3C[C@H](c4ccncn4)O[C@@H]3C2)cs1 | -3.68%
CNC(=O)C1Cn2ccnc2C2(CCN(C(=O)c3ccccn3)CC2)O1 (stereo unspecified) | -2.1%
Cc1ccc(C(=O)N2C[C@@H]3C[C@@H](c4nnc(C5CC5)o4)O[C@@H]3C2)s1 | -3.56%
O=C(c1ncccn1)N1C[C@@H]2COC[C@]2(COCc2cccnc2)C1 | -5.13%
O=C(O)c1nnn(-c2ccccc2F)c1-c1ccncc1 | 5.16%
O=C(O)c1nnn(-c2ccccc2)c1-c1ccncc1 | -30.6%
COc1ccc(N2CCN(CC(O)c3ccc(C)cc3C)CC2)cc1 (stereo unspecified) | -3.49%
CN1CCc2c(C#N)c(NCCc3ccccc3)n3cnnc3c2C1 | -12.4%
NC(=O)c1ccc(NC(=O)Cn2cc(I)cn2)cc1 | -13.1%
O=C(Cn1ccc2cc(Br)ccc21)NCc1ccc(C(=O)O)cc1 | -27.5%

SMILES | cytotoxicity at 70.5 h
O=C(CCn1ccc2ccc(Br)cc21)NCc1ccc(C(=O)O)cc1 | -21.2%
O=C(COc1coc(CN2CCSCC2)cc1=O)c1ccccc1 | -24.2%
O=C(Cn1ccc2ccc(Cl)cc21)NCc1ccc(C(=O)O)cc1 | -2.47%
COCCNc1c(C#N)c2c(c3nncn13)CN(C)CC2 | -5.01%
CCOc1ccc(NC(=O)Cn2cc(I)cn2)cc1 | -18.2%
CCOC(=O)c1ccc(NC(=O)Cn2cc(I)cn2)cc1 | -4.39%
N#CCc1ccc(NC(=O)Cn2cc(I)cn2)cc1 | -9.71%
Cc1nc(-c2ccccc2)cc2nn(CC(N)=O)c(=O)n12 | -2.53%
CCN(CC)C(=O)Cn1c(-c2ccc(Cl)cc2)nc(C)c(CCO)c1=O | 0.81%
CC/N=c1\nc(NCC)nc2n1C(O)(Nc1cccc(C)c1C)CS2 (stereo unspecified) | -6.29%
COc1ccc(-c2cc3nn(CC(N)=O)c(=O)n3c(C)n2)cc1 | -7.26%
Cc1nc(-c2ccc(Cl)cc2)n(CC(=O)NC(C)C)c(=O)c1CCO | -8.99%
COc1ccc(-c2cc3nn(CC(=O)NC(C)C)c(=O)n3c(C)n2)cc1 | 1.34%
O=c1[nH]nc2c(S(=O)(=O)N3CCCCCC3)cccn12 | -7.77%
O=c1[nH]nc2c(S(=O)(=O)N3CCCCC3)cccn12 | -0.253%
CSc1nc2ncc3c(=O)n(C)ccc3n2n1 | -8.16%
CCCc1nnc2sc(-c3cc(C(C)C)n[nH]3)nn12 | 15.4%
c1ccc(-c2nnc3sc(CCN4CCCCCC4)nn23)cc1 | -11.1%
c1ccc2c(c1)COC1(CCCCC1)N2 | -4.51%
CC(C)Cc1nnc2sc(-c3cc(C(C)C)n[nH]3)nn12 | 12.3%
CC(=O)Nc1sc2c(c1C(=O)O)CCc1ccccc1-2 | -11.4%
O=C(Cc1ccc2c(c1)OCCCO2)Nc1nnn[nH]1 | -6.98%
O=C(Cc1ccc2c(c1)OCC2)Nc1nc(C(F)(F)F)n[nH]1 | 0.788%

SMILES | cytotoxicity at 70.5 h
O=c1ccc(-c2ccccc2F)nn1CN1CCCCCC1 | -4.57%
Cc1ccccc1CSc1ncc(Br)c(C(=O)O)n1 | -5.71%
Cc1noc(-c2ccc(N3CCCC(C(=O)O)C3)nc2)n1 (stereo unspecified) | -3.67%
O=C(NCCCn1cccn1)C1(c2ccccc2)CCOCC1 | -10.8%
Cc1ccc(C2(C(=O)NCCCn3cccn3)CCOCC2)cc1 | 14.4%
O=C(O)c1cnc(N2CCC(O)CC2)nc1COc1ccc(F)cc1 | -21.6%
O=C(O)c1cnc(N2CCC(O)CC2)nc1COc1cccc(F)c1 | -12.9%
COc1c(Br)c(C(=O)NC2CCCC2)nn1C | -9.06%
COc1c(Br)c(C(=O)NC2CC2)nn1C | 0.124%
Cn1ncc(C(=O)N2CCOCC2)c1Cl | -13.1%
CC1CCCCN1C(=O)COCc1nc(-c2ccncc2)no1 (stereo unspecified) | 4.94%
CN1CCN(C(=O)COCc2nc(-c3ccncc3)no2)CC1 | 17.1%
O=C(COCc1nc(-c2ccncc2)no1)N1CCCCC1 | -6.97%
CCn1nc(C)c2nnn(CC(=O)Nc3ccc(C)cc3)c(=O)c21 | -4.64%
CCn1nc(C)c2nnn(CC(=O)Nc3ccc(C)c(C)c3)c(=O)c21 | -7.31%
O=C(O)c1cnc(N2CCCC2)nc1COc1ccc(F)cc1 | -21.1%
CCCNc1cc(C(=O)N2CCOCC2)nc(C)n1 | -4.28%
Cc1nc(C(=O)N2CCOCC2)cc(N2CCC(C(N)=O)CC2)n1 | -0.347%
COc1cccc(OCCc2nnc(NC(C)=O)s2)c1 | -6.24%
COCc1nc(N(C)C)ncc1C(=O)NC(C)c1ccccc1 (stereo unspecified) | -5.51%
CCc1c(O)nc2nc(N3CCOCC3)nn2c1C | -11%
CCc1c(O)nc2nc(N3CCCC3)nn2c1C | -5.54%
O=C(Nc1cc(-c2ccncc2)no1)C1CC1 | -10.1%

SMILES | cytotoxicity at 70.5 h
O=C(Nc1cc(-c2ccncc2)no1)C1CCC1 | -10.3%
COc1c(C(=O)NCc2cnn(C)c2C)nnn1Cc1ccccc1 | 23%
COc1c(C(=O)NCc2cccnc2)nnn1Cc1ccccc1 | -7.04%
Cc1cc(N2CCCN(c3ccnc(C)c3)CC2)ccn1 | -7.78%
Cc1cccc(NC(=O)c2ccc(OCc3nnnn3C)cc2)n1 | 14.4%
COc1cc(-c2n[nH]c(CN)n2)cc(OC)c1OC | 23.8%
CN1CCc2c(C#N)c(NCC3CCCO3)n3cnnc3c2C1 (stereo unspecified) | -5.45%
CCOc1ccc(Cl)cc1C1CCCCN1 (stereo unspecified) | -17.3%
CC(C)NC1CC2(CCNCC2)c2cc(F)ccc21 (stereo unspecified) | -2.34%
CCOc1c(CNCCCn2ccnc2)cc(Cl)cc1OC | -5.3%
CCOc1ccc(CNCCCn2ccnc2)cc1Cl | 0.65%
Cc1ccc(N2CCO[C@H]3[C@H](OCC(=O)N4CCCC4)CC[C@@H]32)cc1 | -1.99%
COc1cccc(CN2CCC3(CC2)CCN(c2ncc(F)cn2)C3)c1 | 0.909%
CNC(=O)COC1COC2(CCN(c3ccc(C)nn3)CC2)C1 (stereo unspecified) | 0.115%
N#Cc1cccc(CN2CC3(CCCCN3c3cccnc3)CC2=O)c1 (stereo unspecified) | -1.1%
CCS(=O)(=O)N1Cc2nnn(C)c2C(COCCN(C)C)C1 (stereo unspecified) | -0.313%
CC(C)CN1CCS(=O)(=O)[C@@H]2CCN(S(=O)(=O)c3ccccc3)CC[C@@H]21 | -1.95%
COCCN1C(=O)CC[C@]12CC[C@@H](NCc1cccc(C)n1)CC2 | 0.785%
O=C(c1cc[nH]n1)N1CC[C@@H]2CN(Cc3ccccc3)S(=O)(=O)[C@@H]2CC1 | -13.3%
CC(C)CN1CCS(=O)(=O)[C@@H]2CCN(S(=O)(=O)N(C)C)CC[C@@H]21 | -5.76%
COc1ccc(CN2CC[C@@H]3CN(S(C)(=O)=O)CCO[C@@H]3C2)cc1 | -2.97%
CS(=O)(=O)N1CCCC12CCN(Cc1nccs1)CC2 | -3.49%
Cn1nc(COCC2CC2)c2c1CN(C(=O)c1ccno1)CC2 | -9.87%

SMILES | cytotoxicity at 70.5 h
COCCN1C(=O)CC[C@]12CC[C@@H](NCc1nccs1)CC2 | -6.2%
CN1CCN(CC2CC2)C(=O)C12CCN(C(=O)c1ccnnc1)CC2 | -5.46%
CS(=O)(=O)N1CCO[C@@H]2CN(Cc3ccc(F)cc3)CC[C@@H]2C1 | -4.41%
CC(=O)N1CC[C@@H]2CN(Cc3ccncc3)S(=O)(=O)[C@@H]2CC1 | 0.262%
CCS(=O)(=O)N1CC[C@@H]2[C@H](CC1)N(CC(C)C)CCS2(=O)=O | -1.74%
Cc1ccc(C(=O)N2CCO[C@H]3[C@H](OCc4ccccn4)CC[C@@H]32)o1 | -3.92%
CS(=O)(=O)N1CC[C@]2(C[C@@H](Oc3ccccn3)CO2)C1 | -3.36%
CS(=O)(=O)N1CCC2(CC1)CC(Oc1ccccn1)CO2 (stereo unspecified) | -3.34%
Cc1ccc(C(=O)N2CCO[C@H]3[C@H](OCCN(C)C)CC[C@@H]32)o1 | -4.42%
Cc1ccc(CN2CCOCC3(C2)CN(c2ccc(C)s2)C(=O)CO3)o1 (stereo unspecified) | 0.222%
Cc1cc(CN2C[C@@H]3CCCO[C@@H]3[C@H](N(C)C(C)C)C2)no1 | -3.76%
Cc1ncsc1CN1C[C@@H]2CCCO[C@@H]2[C@H](N(C)C(C)C)C1 | -4.74%
O=C(c1cnccn1)N1CCCC2(CCN(Cc3cccnc3)C2)C1 (stereo unspecified) | -4.19%
COCCN1C[C@@H]2CN(Cc3ccoc3)CCC[C@]2(C(=O)O)C1 | -1.11%
O=C1COC2(COCCN(Cc3cccnc3)C2)CN1c1ccccc1 (stereo unspecified) | -0.932%
COc1ncccc1CN1C[C@@H]2OCCN(CCN(C)C)[C@@H]2C1 | -3.67%
COc1ccc2c(c1)C1(CCN(Cc3cccnc3)CC1)N(C)CC2 | -1.98%
O=C(CN(C1=NCCCCC1)c1ccc(Cl)cc1)c1ccccc1 | 10.9%
Cc1cccc(N(CC(=O)c2ccccc2)C2=NCCCCC2)c1 | -11.4%
